Experimental data from patent publication US20230346831A1, “METHODS FOR TREATING […] USING LOW DOSE CARBON MONOXIDE” (priority 2020, published 2023).

Experiments:
[1] = system: N134/RHAMM^B cells; assay: tail vein liver metastasis model; format: in vivo; conditions: 1.5 × 10^6 N134/RHAMM^B cells tail vein, NSG mice, 250 ppm CO 3 hours daily, 24 days
Method: NSG mice were injected with 0.1 million (FIGS. 3A-3B) or 5 × 10^4 (FIGS. 3C-3E) MDA-MB-231/TGL breast cancer cells through tail vein or 8988T/TGL pancreatic cancer cells through spleen (FIGS. 3F-3H). Mice were randomly divided into two groups after injection. One group of mice was kept in regular mouse holding room all the time while the other group was treated with 250 ppm CO for 3 hours daily starting one day after injection. FIGS. 3C and 3F: bioluminescent imaging was taken at day 0, day 1, day3 and then once a week and signals from the whole mice were plotted. FIGS. 3A, 3D and 3G: organs were harvested for histological analysis. Representative H&E stained images of metastatic tumors in the lung sections (FIGS. 3A and 3D) and in the liver sections (FIG. 3G) were shown. Metastatic tumor areas or numbers of mets on the H&E stained sections for each mouse were quantified (FIGS. 3B, 3E and 3H).
In another experiment, immunodeficient NOD/scid-IlL2Rgc knockout mice were injected with 1.5 × 10^6 N134/RHAMM^B cells in 120 µl PBS via tail veins. Tumors developed 24 days after injection with 1.5 × 10^6 N134/RHAMM^B cells, and livers were assessed.

[2] = system: HCP1; assay: quantitative real-time reverse transcription PCR; format: cell-based, human; conditions: MCF7/TGL and MDA-MB-231/TGL cells; 250 ppm CO
Method: (§1) mRNA was isolated from cells (MCF7/TGL and MDA-MB-231/TGL) grown on 6-cm dishes using RNeasy mini kit (Qiagen, Hilden, Germany) containing gDNA Eliminator spin columns. cDNA was generated using the SuperScript III First-strand synthesis system with random hexamers (Invitrogen, Carlsbad, CA), and power SYBR green (Invitrogen, Carlsbad, CA)-based quantitative real-time PCR was performed using primer specific for HRG1 (human, forward: 5′- […] -3′ (SEQ ID NO: 1), reverse: 5′- […] -3′ (SEQ ID NO: 2)) or HCP1 (human forward: 5′- […] -3′ (SEQ ID NO: 3), reverse: 5′-[…] -3′ (SEQ ID NO: 4)), CYP1B1 (human, forward: 5′TGAGTGCCGTGTGTTTCGG -3′ (SEQ ID NO: 5), reverse: 5′-[…] -3′ (SEQ ID NO: 6)), SP1 (human, forward: 5′-GTGGCCGCTACCTTCACTG -3′ (SEQ ID NO: 7), reverse: 5′-GCCCCACTCCTACTTGGTC -3′ (SEQ ID NO: 8)) with the comparative CT method (ΔΔCT; ABI).
(§2) To investigate how CO reduces heme levels, whether CO decreased the transportation of heme into the cytosol was examined. […] Furthermore, heme oxygenases (HO-1, HO-2, and HO-3) cleave heme into 3 products: CO, ferrous ions (Fe2+), and biliverdin. […] Likewise, changes in protein levels of Bach 1 (a physiological repressor of HO-1 and a pro-metastatic transcription factor, whose degradation is reported to be mediated by heme in Nrf2-mutated lung cancer) was not detected (FIG. 4E). […]

[3] = system: HRG1; assay: quantitative real-time reverse transcription PCR; format: cell-based, human; conditions: MCF7/TGL and MDA-MB-231/TGL cells; 250 ppm CO
Method: as §1, §2

[4] = system: MDA-MB-231/TGL cells; assay: experimental tail vein lung metastasis assay, human breast cancer xenograft; format: in vivo, NSG mice
Method: NSG mice were generated by the Jackson Laboratory. All mice were housed in accordance with the institutional guidelines. All procedures involving mice were approved by the institutional animal care and use committee of Weill Cornell Medicine. 1 × 10^5 or 5 × 10^4 MDA-MB-231/TGL cells in 150 µl PBS were injected into the tail veins of female NSG mice at the age of 7-8 weeks (n=5/group for 1× 10^5 cells and n = 6/group for 5 × 10^4 cells). 1× 10^4 8988T/TGL cells in 100 µl PBS were injected into spleen of NSG mice at age of 7-8 weeks (n=4/group, male and female) to observe the liver metastasis (G. Zhang, & Y. N. Du, Methods Mol Biol 1882, 309-320 (2019)). The spleen was removed after the injection. Starting one day after injection, mice were randomized into two groups. One group was kept in a regular mouse holding room (control), and the other group was put into a chamber delivering 250 ppm CO 3 hours daily. Mice were subjected to bioluminescent imaging using the In Vivo Imaging System Spectrum (PerkinElmer, Waltham, MA) at 0, 1, 3 days and then weekly after tumor cells were injected until the final time points, as described previously by Y. C. Du, D. S. Klimstra, & H. Varmus, PLoS One 4, e6932 (2009)). Luciferase signals were transformed to nature log scale before analysis. GEE method was used to test the overall difference of tumor growth over time. All analyses were performed in statistical software SAS Version 9.4 (SAS Institute, Cary, NC).
Mouse tissues were removed and fixed in 10% buffered formalin overnight at room temperature. Formalin-fixed/paraffin-embedded sections (5-µm) were deparaffinized and rehydrated by passage through a graded xylene/ethanol series before staining. Immunochemistry was performed using the VECTASTAIN Elite ABC kit following the manufacturer’s instructions. Tumor number and tumor size were quantified by scanning the whole tissue slide of each mouse under microscope. The size of tumor area of each tumor was measured by the cellSens imaging software (Olympus, Tokyo, Japan). Total tumor area of each mouse or total tumor number of each mouse was plotted. The primary antibodies used were cleaved caspase 3 (1:333; Cell Signaling Tech (Cat. No. 9661), Danvers, MA) and Ki67 (1:1000, Vector Labs (Cat. No. VP-K451), Burlingame, CA).
To determine whether 250 ppm CO inhibits cancer metastasis in vivo, an experimental tail vein metastasis assay with TNBC MDA-MB-231 cell line was performed. 0.1 million MDA-MB-231/TGL (luciferase reporter) cells were injected into the tail vein of the NOD/scid-lL2Rgc knockout (NSG) immunodeficient mice. Mice were randomly divided in to two groups after injection. […]

[C-]#[O+] [CO, Carbon monoxide]
total metastatic pancreatic tumor burden in the liver [1]: showed a trend to reduce | liver metastases ([1]; vs untreated controls): reduced | HCP1 mRNA expression [2]: reduced | HRG1 mRNA expression [3]: reduced | metastatic tumor burden in lung sections (histological analysis) ([4]; 0.1 million MDA-MB-231/TGL cells tail vein, NSG mice, 250 ppm CO gas 3 hours daily, 23-day time point, vs control): significantly lower | appearance / signs of sickness of the mice ([4]; 0.1 million MDA-MB-231/TGL cells tail vein, 250 ppm CO 3 hours daily, control group lethargic after 23 days): looked healthy and had no signs of sickness | metastatic tumor burden in lung sections (histological analysis) ([4]; 5 × 10^4 MDA-MB-231/TGL cells tail vein, 250 ppm CO 3 hours daily, 7 days/week, 25 days after the injection): significantly lower | bioluminescent signals (whole mice) over time ([4]; 5 × 10^4 MDA-MB-231/TGL cells tail vein, 250 ppm CO 3 hours daily, 7 days/week, imaging to 3 weeks, P = 0.0016, GEE method): significantly lower
